Data reported in patent US20260242405A1, “N-DERIVATIZED SIALIC ACIDS AND RELATED SIALOSIDES” (THE REGENTS OF THE UNIVERSITY OF CALIFORNIA, priority 2023, published 2026).
Where two headings read alike, the source gives them in different places.

What was measured:
[1] = biological target: N1-BR18 (IAV neuraminidase) (Influenza A virus, UniProt A0A0X9QTS2); experiment: Fluorescence-based inhibition assay (substrate Neu5Acα2-3GalβMU, β-galactosidase coupled); assay type: biochemical, influenza A virus A/Brisbane/02/2018 (H1N1); settings: for Percentage inhibition against N1-BR18 (IAV): substrate Neu5Acα2-3GalβMU 8.0 μM
[2] = biological target: NB-Aus21 (IBV neuraminidase) (Influenza B virus, UniProt A0A1X9RX69); experiment: biochemical; design: species or system influenza B virus B/Austria/1359417/2021; settings: inhibitor 8.0 μM
[3] = biological target: T1, hNEU2 (human cytosolic sialidase) (Homo sapiens, UniProt Q9Y3R4); experiment: Fluorescence-based inhibition assay (substrate Neu5Acα2-3GalβMU, β-galactosidase coupled); assay type: biochemical; settings: inhibitor 8.0 μM
T1 construct: made in house

[4] = test system: N1-Vic19 (IAV neuraminidase); experiment: as above; assay type: biochemical, influenza A virus A/Victoria/2570/2019 (H1N1); settings: inhibitor 8.0 μM; Example 3, Table 4
[5] = biological target: N2-Dar21 (IAV neuraminidase) (Influenza A virus, UniProt A0A193ACB1); experiment: as above; assay type: biochemical, influenza A virus A/Darwin/9/2021 (H3N2); settings: for inhibition at 8 µM: read-out: percentage inhibition against N2-Dar21
[6] = biological target: N2-Kan17 (IAV neuraminidase) (Influenza A virus, UniProt A0A193ACB1); experiment: as above; assay type: biochemical, influenza A virus A/Kansas/14/2017 (H3N2); settings: for inhibition at 8 µM: read-out: percentage inhibition against N2-Kan17
[7] = biological target: NB-Phu13 (IBV neuraminidase) (Influenza B virus, UniProt A0A1S5RAG6); experiment: as above; assay type: biochemical, influenza B virus B/Phuket/3073/2013; settings: for inhibition at 8 µM: read-out: percentage inhibition against NB-Phu13
[8] = biological target: T2, PmST1 WT (sialidase activity of α2-3-sialyltransferase 1 in the presence of CMP) (Pasteurella multocida, UniProt Q15KI8); experiment: biochemical; settings: for inhibition at 8 µM: read-out: percent inhibition against PmST1 WT
T2 construct: made in house

SpNanA (sialidase) = biological target: T3, SpNanA (sialidase) (Streptococcus pneumoniae, UniProt P62575); experiment: Fluorescence-based inhibition assay (substrate Neu5Acα2-3GalβMU, β-galactosidase coupled); assay type: biochemical; settings: for inhibition at 8 µM: read-out: percent inhibition against SpNanA
T3 construct: made in house

[9] = test system: human, bacterial, and influenza sialidases; experiment: High-throughput substrate specificity assay with sialyl GalβpNPs (A405 nm); assay type: biochemical, bacteria, influenza A and B viruses; settings: for cleavage by sialidases, selectivity: low and high enzyme-concentration assay conditions, Example 3
[10] = inhibitor 8.0 μM, Example 2, Table 2
[11] = substrate Neu5Acα2-3GalβMU 8.0 μM, Example 2, Table 2
[12] = read-out: Percentage inhibition against N1-BR18 (IAV), inhibitor 8.0 μM, substrate Neu5Acα2-3GalβMU 8.0 μM, Example 2, Table 2
[13] = read-out: percentage inhibition against N1-BR18, inhibitor 8.0 μM, Example 3, Table 4
[14] = substrate Neu5Acα2-3GalβMU 8.0 μM, Example 2, Table 2, read-out: Percentage inhibition against NB-Aus21 (IBV)
[15] = Example 3, Table 4, read-out: percentage inhibition against NB-NB-Aus21
[16] = substrate Neu5Acα2-3GalβMU 8.0 μM, Example 2, Table 2, read-out: Percentage inhibition against hNEU2
[17] = Table 5, read-out: percent inhibition against hNEU2
[18] = high-concentration enzyme conditions (10-fold, Vc sialidase 4-fold), 1 hour
[19] = high-concentration enzyme conditions, 14 hours
[20] = inhibitor 8.0 μM, Example 3, Table 4

T1 sequence (Q9Y3R4 whole entry): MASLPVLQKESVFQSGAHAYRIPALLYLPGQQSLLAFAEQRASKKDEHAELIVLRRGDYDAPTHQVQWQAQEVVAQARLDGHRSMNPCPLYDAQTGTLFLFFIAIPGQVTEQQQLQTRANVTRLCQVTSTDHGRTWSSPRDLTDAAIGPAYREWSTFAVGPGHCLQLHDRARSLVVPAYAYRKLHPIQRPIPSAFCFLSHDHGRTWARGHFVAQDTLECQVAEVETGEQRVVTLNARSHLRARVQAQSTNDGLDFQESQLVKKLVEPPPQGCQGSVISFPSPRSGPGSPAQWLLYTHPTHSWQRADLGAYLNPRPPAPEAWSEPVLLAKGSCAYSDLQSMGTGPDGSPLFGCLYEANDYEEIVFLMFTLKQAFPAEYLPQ

SMILES	Percentage inhibition against N1-BR18 (IAV) [1, 10] [%]	Percentage inhibition against NB-Aus21 (IBV) [2, 11] [%]	Percentage inhibition against hNEU2 [3, 11] [%]	inhibition at 8 µM [1, 12] [%]	inhibition at 8 µM [1, 13] [%]	inhibition at 8 µM [2, 14] [%]	inhibition at 8 µM [2, 15] [%]	inhibition at 8 µM [3, 16] [%]	inhibition at 8 µM [3, 17] [%]	percentage inhibition against N1-Vic19 [4] [%]	inhibition at 8 µM [5] [%]	inhibition at 8 µM [6] [%]	inhibition at 8 µM [7] [%]	inhibition at 8 µM [8] [%]	inhibition at 8 µM (SpNanA (sialidase)) [%]	cleavage by sialidases [9, 18]	cleavage by sialidases [9, 19]	cleavage by sialidases, selectivity [9]	also measured
CC(=O)N[C@H]1[C@H]([C@H](O)[C@H](O)CO)OC(O)(C(=O)O)C[C@@H]1NC(=N)N (stereo partly shown) [4-Guanidino-Neu5Ac (9), 4-guanidino-Neu5Ac]	76.4 ± 4.9	51.0 ± 0.1	3.3 ± 0.6																
CC(=O)N[C@H]1[C@H]([C@H](O)[C@H](O)CO)OC(O)(C(=O)O)C[C@@H]1N=[N+]=[N-] (stereo partly shown) [4N3Neu5Ac (7), 4-azido-Neu5Ac]	0.0 ± 4.5	37.5 ± 4.1	3.0 ± 0.8																
CC(=O)N[C@@H]1C(N=[N+]=[N-])C[C@](OC2C(O)[C@H](Oc3ccc([N+](=O)[O-])cc3)OC(CO)[C@@H]2O)(C(=O)O)OC1[C@H](O)[C@H](O)CO (stereo partly shown) [4N3Neu5Acα2-3GalβpNP]				0	2.6	22 ± 3.7	3.8	0	0	1.2	0.8	0.1	0.9	24 ± 6.9	0.6 ± 2.7	completely cleaved	selectively by influenza virus NAs	selectively cleaved by all influenza NAs tested but not human NEU2 or bacterial sialidases	cleavage by sialidases ([9]; low-concentration enzyme conditions, 30 minutes, 37° C.): cleaved off selectively by influenza virus NAs only
CC(=O)N[C@@H]1C(N=[N+]=[N-])C[C@](OCC2O[C@@H](Oc3ccc([N+](=O)[O-])cc3)C(O)C(O)[C@H]2O)(C(=O)O)OC1[C@H](O)[C@H](O)CO (stereo partly shown) [4N3Neu5Acα2-6GalβpNP]				0	0.2	23 ± 3.6	1.4	0	0	3.9	1	0	2.6	41.3 ± 20.3	11.6 ± 6.7	low percentage	selectively by influenza virus NAs	observed only under the high-enzyme-concentration assay conditions	
CC(=O)N[C@H]1[C@H]([C@H](O)[C@H](O)CO)OC(C(=O)O)=C[C@@H]1NC(C)=O [4NAcNeu5Ac2en]	0.0 ± 2.5	21.3 ± 0.2	2.1 ± 2.5							0.7									percentage inhibition against N1-BR18 [1, 20]: 2.5%; percentage inhibition against NB-NB-Aus21 ([2]; Example 3, Table 4): 1.4%; percent inhibition against hNEU2 ([3]; Table 5): 2.1 ± 2.5%; percentage inhibition against N2-Dar21 [5, 20]: 2.4%; percentage inhibition against N2-Kan17 [6, 20]: 6.1%; percentage inhibition against NB-Phu13 [7, 20]: 0.6%; percent inhibition against PmST1 WT ([8]; inhibitor 8.0 μM, in the presence of CMP, Table 5): 7.1 ± 0.7%; percent inhibition against SpNanA (SpNanA (sialidase); inhibitor 8.0 μM, Table 5): 0.5 ± 6.5%
CC(=O)N[C@H]1[C@H]([C@H](O)[C@H](O)CO)OC(O)(C(=O)O)C[C@@H]1NC(C)=O (stereo partly shown) [4NAcNeu5Ac (3), 4NAcNeu5Ac]	11.5 ± 22.7	27.9 ± 10.1	3.0 ± 1.0																
